# Reference: US20020111314A1, “Novel stimulation of gene expression and protein synthesis of heat shock protein 72/73 (Hsp 70)” (The Trustees of Columbia University, priority 1995, published 2002)
# Square brackets hold non-standard residues; d marks the D form. Peptide text beside a SMILES is read from it. Nle = CCCC[C@H](N)C(=O)O
# Assays:
# HepG2 cells = experiment: Total incorporation of radiolabel (TCA cpm) as indicator of cell toxicity in HepG2 cells; format: cell-based, human; details: ALLN 10 μg/ml
# Procedure: FIGS. 3A-3B: Effects of the other protease inhibitors on Hsp70 biosynthesis in HepG2 cells. HepG2 cells were preincubated in serum-free MEM containing either 1.5% BSA alone (Control), or BSA plus 40 μg/ml of ALLN, 40 μg/ml of ALLM, 50 μg/ml of leupeptin, 50 μg/ml of pepstatin A, 25 μg/ml of E-64d, 1 mM of phenylmethylsulfonyl fluoride (PMSF), 100 KIU/ml of apotinin, 1 mM of Benzamidine (Benz), 200 μM of calpain inhibitor peptide (CIP). Radiolabeling (in the presence of protease inhibitors), lysis and immunoprecipitation were performed as described in FIG. 1. The Hsp70 specific radioactivity (A) and the amount of total incorporated radioactivity (TCA-cpm) (B) were compared with each other. All the values were presented as the mean±SD from three individual culture dishes.
# Preincubation and labeling media each contained either 1.5% bovine serum albumin (BSA) alone, or BSA plus ALLN (40 μg/ml except as otherwise indicated), or BSA plus other protease inhibitors at concentrations indicated in the figure legends. At the indicated times, cells were removed from the 37° C. incubator and placed on ice, washed with cold phosphate-buffer saline (PBS) twice and lysed with lysis buffer containing 1% Triton X-100 (TX100), 1% deoxycholic acid (DOC) and 0.1% SDS in PBS containing proteinase inhibitors: 2 mM phenylmethylsulfonyl fluoride (PMSF); 2 μg/ml ALLN; 2 μg/ml leupeptin; and 2 μg/ml aprotinin. After a 30 min. incubation with lysis buffer at 4° C., the lysates were centrifuged at 14,000 g in a microcentrifuge for 5 min., and the supernatants were adjusted to 1% SDS concentration and boiled for 5 min. to denature the proteins. 1% TX100 was then added to dilute the lysates to a final concentration of 0.1% SDS. Cell lysates containing equal amounts of trichloroacetic acid (TCA)-insoluble radioactivity were used for immunoprecipitations by incubating with individual monoclonal antibody (1 μg/ml) for 2.5 hours at 4° C. Protein-A Sepharose 4B was added afterwards and the lysates incubated for another 1.5 hours at 4° C. to collect the immunocomplexes. […]
# [1] = tested on: human microvascular endothelial cell line; experiment: TCA-cpm measurement in human microvascular endothelial cell line; format: cell-based; details: 4 hours ALLN 40 μg/ml
# proteasomes = details: Rock, et al., 1994; cited from earlier work
# Hsp70 [2] = experiment: Hsp70 turnover (pulse-chase) in HepG2 cells; format: cell-based, human
# Procedure: FIGS. 4A-4B: Effects of ALLN on Hsp70 turnover and synthesis rates in HepG2 cells. Confluent culture dishes were preincubated for 4 hours with serum-free MEM containing either 1.5% BSA alone (Control) or BSA plus 40 μg/ml of ALLN (ALLN). (A) The preincubated cells were radiolabeled with 3H-leucine (150 μCi/ml) in serum-free, leucine-free medium with/without ALLN for 20 min., washed 3 times with medium free of isotope and then chased in serum-free medium containing BSA with/without ALLN for up to 20 hours. At the indicated time points, cells were harvested and lysed. Samples were immediately stored in a −80° C. freezer. Immunoprecipitation of Hsp70 was performed as described in FIG. 1. […]
# FIGS. 8A-8C: Effects of ALLN on Hsp70 synthesis and turnover rates in HepG2 cells. […] Immunoprecipitates were analyzed on SDS-PAGE and fluorography (A) and also aliquoted for scintillation counting (B). […]
# Since ALLN is a cysteine protease inhibitor, the possibility that protection of Hsp70 from proteolytic degradation accounted for the sharp increase in Hsp70 induced by ALLN was tested (Rock, et al., 1994; Ward, et al., 1995; Hiwasa, et al., 1990; Inoue, et al., 1991; and Sakata, et al., 1993). To determine whether ALLN stabilizes Hsp70, the turnover rate of radiolabeled Hsp70 in the presence or absence of ALLN (40 μg/ml) was measured in a pulse-chase experiment. […]
# Hsp70 [3] = experiment: Hsp70 induction in human microvascular endothelial cell line; format: cell-based; details: 4 hours ALLN 40 μg/ml, 30 min labeling with [3H]-leucine
structure (smiles),measurement,setting,value
"CCCC[C@@H](C=O)NC(=O)[C@H](CC(C)C)NC(=O)[C@H](CC(C)C)NC(C)=O [ALLN, N-acetyl-leucyl-leucyl-norleucinal] (Ac-Leu-Leu-[Nle]-aldehyde)","cell total incorporation of radiolabel (TCA cpm, indicator of cell toxicity)",HepG2 cells,did not change significantly
same,TCA-cpm measurement,[1],no change
same,inhibition of proteasomes,proteasomes,potent inhibitors
same,increase in the half-life of Hsp70,Hsp70 [2]; ALLN 40 μg/ml vs without ALLN,3-4 fold
same,half life of newly synthesized Hsp70 in the presence of ALLN,"Hsp70 [2]; ALLN 40 μg/ml, pulse-chase",about 6 hours
same,increment of Hsp70 level,Hsp70 [3],35 fold
